Structures are written as SMILES. Residues, ends and D or L forms follow the SMILES beside them.

The values below come from patent US20070207112A1, “Anti-acne composition” (GRANT INDUSTRIES, INC., priority 2006, published 2007).

The test system of assay [1] is P. acnes. The class given is cell-based. The conditions noted are these: salicylate 0.08% to 5%. From the text: In-Vitro testing for the synergetic inhibitory effects of Compound A and salicylic acid on the growth of P. acnes.
The objective of this experiment was to establish the minimal inhibitory concentration (MIC) of the peptide (Compound A) towards the bacterium P. acnes, in the presence of a range of concentrations of sodium salt of salicylic acid. MIC is defined as the lowest concentration of an active material resulting in lack of microbial growth. P. acnes (BD, cat. #237038, batch #6152097) was inoculated at 3 different dilutions and grown on blood agar plates for one week in anaerobic condition at 37 deg. C. Bacteria were then inoculated in thioglycollate broth in a 96 well plate, at the density equal to 0.5 McFarland standard in the presence of peptide (Compound A) concentrations ranging from 0.25 ug/ml to 32 ug/ml and salicylate concentrations ranging from 0.08% to 5% (checker method). MIC was determined visually and confirmed by spectrophotometry at 490 nm and 590 nm on the BioRad 3550-UV microplate reader.

For assay [2], the system named is P. acnes. The conditions noted are these: cited from earlier work.

For `CC(C)C[C@H](NC(=O)[C@H](C)NC(=O)[C@H](CCCCN)NC(=O)[C@H](CC(C)C)NC(=O)[C@H](C)NC(=O)[C@H](CCCCN)NC(=O)[C@H](CC(C)C)NC(=O)[C@H](CC(C)C)NC(=O)[C@H](C)NC(=O)[C@H](CCCCN)NC(=O)[C@H](CC(C)C)NC(=O)[C@H](C)NC(=O)[C@H](CCCCN)NC(=O)[C@H](C)NC(=O)[C@@H](N)Cc1ccccc1)C(N)=O` [Compound A, FAKALKALLKALKAL-NH2] (H-FAKALKALLKALKAL-NH2; N-terminus assumed), in assay [1], the “Effect of added sodium salicylate on antimicrobial activity of the peptide” value is recorded as “strongly enhance its antimicrobial activity”. Besides, in assay [2] (in-vitro, reported in earlier filings), the “MIC against P. acnes (in words)” value is “low in-vitro minimum inhibitory concentration (MIC) against P. acnes”. Take `O=C(O)c1ccccc1O` [salicylic acid, reference compound]: the “Antibacterial activity against P. acnes” value in assay [2] (U.S. Pat. No. 4,520,133) is given as “does not posses any antibacterial activity against P. acnes”.
